Experimental data published in PMC12415213, “A genome-scale drug discovery pipeline uncovers therapeutic targets and a unique p97 allosteric binding site in Schistosoma mansoni” (Proceedings of the National Academy of Sciences of the …, 2025).
Where two headings read alike, the source gives them in different places.

Legend:
[1] = biological target: S. mansoni p97 (Smp_018240) (Schistosoma mansoni, UniProt G4M0P7); assay type: biochemical; details: recombinant full-length enzyme, Kinase-Glo, 100 μM to 1 nM
Protocol: Evaluation of p97’s ATPase activity and compound potency
For manual ATP consumption assays, 1 µM p97 was incubated with 1% DMSO or inhibitor (1% DMSO final) in assay buffer [50 mM Tris (pH 7.5), 20 mM MgCl2, 1 mM EDTA, 0.5 mM tris(2-carboxyethyl)phosphine (TCEP)] for 5 minutes prior to the addition of 20 µM ATP in a 384-well plate for a total reaction volume of 10 µL, and a final concentration of 500nM enzyme and 10 µM ATP. The reaction was allowed to proceed for 50 minutes at room temperature before adding equivalent volume of Kinase-Glo Plus reagent (Promega), and a further incubation of 10 minutes in the dark. Luminescence was read using a BioTek Synergy 2 plate reader […]
1 μM, 500 nM, 100 nM, 50 nM, 10 nM, 5 nM, 1 nM, and 0 nM) in triplicate, maintaining a concentration of 1% […]
were calculated using GraphPad Prism. […]

[2] = tested on: K48 polyubiquitinated proteins in adult S. mansoni; experiment: Western blot of K48 polyubiquitinated proteins in lysate of drug-treated worms; assay type: cell-based, Schistosoma mansoni; details: adult worm lysate after 48 h of treatment
Protocol: (§1) DMSO). All selected compounds were obtained from commercial vendors (Medchemexpress, Selleck Chemicals, Sigma-Aldrich, ApexBio, Tocris, Santa Cruz Biotechnology, and Cayman Chemical Company) (Dataset S4) with […]
the activity of the desired compounds. Roughly 5 adult worm pairs were placed in 3mL Basch medium in a 12-well culture vessel, and incubated at 37° C, 5% CO2 for the length of the experiment. […]
(§2) For drug treatment studies, 10 male adult worms (single or paired with females) were supplemented with either 0.1% DMSO or inhibitor (0.1% DMSO final). For all experiments assessing on-target effects of potential parasite […]
(§3) After 48 hr, male parasites were separated […]
(§4) further processing. Male worm samples were homogenized with a pestle in 50 µL lysis buffer containing 2X […]
(Roche, cOmplete Mini, EDTA-free Tablets) and 10 mM DTT. The lysates were then sonicated on high for 5 min (30 sec on, 30 sec off) using a Bioruptor UCD-200. Lysates were centrifuged for 5 min at 10,000 g to remove […]
debris. Total protein was measured using the Detergent Compatible Bradford Assay (Pierce). 50 µg of protein samples denatured in SDS Sample buffer (95°C for 5 min) were separated on a Bio-Rad 4-20% TGX Stain-Free gel along with Precision Plus Protein Dual Color Standards (Bio-Rad) as a marker. Proteins were then transferred to a nitrocellulose membrane (Bio-Rad). The membrane was blocked in a 1:5 solution of Li-Cor Odyssey Blocking buffer in PBST for 1 hr before being immunoblotted overnight at 4°C with 1:500 K48-linkage Specific […]
(1:10,000) (Developmental Studies Hybridoma Bank, JLA20) diluted in a 1:5 solution of Li-Cor Odyssey Blocking buffer in PBST. The membrane was washed 3x in TBST and then incubated in 1:5 Li-Cor Odyssey […]
in TBST 3x before being imaged on a LiCor Odyssey Infrared Imager. […]

[3] = tested on: adult S. mansoni; set-up: method as in PMID 32973031; details: adult parasites; cited from earlier work
[4] = tested on: adult S. mansoni; experiment: Dose-response of compounds on adult worms (attachment to culture substrate, EC50); assay type: cell-based, Schistosoma mansoni
Protocol: as §1
the activity of the desired compounds. Roughly 5 adult worm pairs were placed in 3mL Basch medium in a 12-well culture vessel, and incubated at 37° C, 5% CO2 for the length of the experiment. Compound was administered at D0, D1, and D2, media and drug refreshed every 24 hr. Worms were then allowed to remain in culture until D5, where a final assessment of worm attachment to tissue culture substate was made by light microscopy.
Observations on movement and morphology were also recorded. A negative control (0.1% DMSO) and positive control (PZQ; 10 µM in 0.1% DMSO) were included in each experiment, and each experiment was repeated in triplicate for validation. For compounds that caused complete detachment in replicate experiments, the treatment was expanded to three concentrations (10 µM, 5 µM, and 1 µM) following the same treatment schedule and controls as detailed above.
Each titration experiment was performed in triplicate according to the treatment regimen described above, using DMSO and PZQ as appropriate controls. Morphologies and motility were assessed by light microscopy, and dose-response curves were calculated using the primary readout of parasite attachment to tissue culture substrate in GraphPad Prism.
as §2, §3, §4
(Roche, cOmplete Mini, EDTA-free Tablets) and 10 mM DTT. The lysates were then sonicated on high for 5 min (30 sec on, 30 sec off) using a Bioruptor UCD-200. […]
Compounds were tested from 100 μM – 1 nM. Values were calculated using Prism.

[5] = tested on: HepG2 cells; experiment: HepG2 cytotoxicity assay (Cell Titer Glo 2.0); assay type: cell-based, Homo sapiens; details: 72 h

S. mansoni p97 (Smp_018240), sequence (G4M0P7 entry or part of it): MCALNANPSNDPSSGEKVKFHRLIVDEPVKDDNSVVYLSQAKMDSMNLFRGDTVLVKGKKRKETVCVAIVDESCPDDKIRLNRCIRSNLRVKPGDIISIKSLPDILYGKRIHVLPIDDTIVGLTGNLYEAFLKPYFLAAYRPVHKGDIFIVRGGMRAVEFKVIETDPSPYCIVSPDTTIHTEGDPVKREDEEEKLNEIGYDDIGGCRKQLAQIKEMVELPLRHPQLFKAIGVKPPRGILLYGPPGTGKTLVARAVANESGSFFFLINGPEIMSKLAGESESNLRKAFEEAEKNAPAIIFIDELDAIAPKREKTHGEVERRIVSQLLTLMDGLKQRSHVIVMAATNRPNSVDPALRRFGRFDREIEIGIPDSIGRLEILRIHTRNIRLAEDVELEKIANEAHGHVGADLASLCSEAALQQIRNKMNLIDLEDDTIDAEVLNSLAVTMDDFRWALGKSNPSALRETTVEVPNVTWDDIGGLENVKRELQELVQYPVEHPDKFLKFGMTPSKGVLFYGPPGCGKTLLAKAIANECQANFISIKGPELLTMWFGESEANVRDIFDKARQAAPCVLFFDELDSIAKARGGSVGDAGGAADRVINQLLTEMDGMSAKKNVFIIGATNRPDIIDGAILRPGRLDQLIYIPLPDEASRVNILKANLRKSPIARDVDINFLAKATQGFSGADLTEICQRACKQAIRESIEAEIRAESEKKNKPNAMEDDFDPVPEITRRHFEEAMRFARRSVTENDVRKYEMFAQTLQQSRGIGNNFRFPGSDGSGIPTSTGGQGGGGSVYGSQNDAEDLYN

Row | Compound | IC50 [1] | accumulation of K48 polyubiquitinated proteins by western blot [2] | concentration leading to parasite death in vitro [3] | EC50 ([4]; adult worms in vitro, tested 50 μM to 10 nM, readout attachment to culture substrate, read-out: EC50 of commercial inhibitors of human orthologs on adult parasites) | GI50 ([5]; 50% growth inhibition normalized to time = 0) | IC50 ([5]; 50% growth inhibition relative to control) | EC50 ([4]; fraction of worms attached after 72 h drug treatment, refreshed every 24 h, kept until D5, 50 μM - 10 nM, read-out: S. mansoni EC50 (μM) on adult parasites)
1 | Cc1cc(OCc2nnc(SC3CCCC3)n2-c2cccnc2)ccc1-c1ccc(S(C)(=O)=O)cc1 [NMS-873] | 230 ± 75 nM | accumulation of proteins targeted for proteasome-mediated degradation | submicromolar concentrations | – | – | – | –
2 | AGI-41998 | – | – | – | 0.71 µM | – | – | –
3 | Cc1cc2c(C(N)=O)cccc2n1-c1nc2c(c(NCc3ccccc3)n1)COCC2 [CB-5083] | – | accumulation of proteins targeted for proteasome-mediated degradation | submicromolar concentrations | – | 310 nM | 410 nM | 0.36 µM
